Data published in patent US20250127906A1, “SMALL-MOLECULE DEGRADERS OF CDK8 AND CDK19” (University of South Carolina, priority 2021, published 2025).

Key:
[1] = target: T1, CDK8 (Homo sapiens, UniProt P49336); experiment: CDK8 degradation in Loucy T-cell leukemia cells lacking Cyclin C; format: cell-based; set-up: endogenous in cells; host or cells: Loucy; settings: Loucy cells (lacking CCNC), 24 hr treatment
From the text: (§1) This cell line, however, is unique in lacking Cyclin C (CCNC), the binding partner of CDK8/19. To test if the absence of CDK8-bound CCNC was responsible for the loss of IA7843 CDK8-degrading activity, we have tested the effect of IA7843 on a derivative of HEK-293cells with CRISPR-mediated knockout of CCNC.
Target sequence in this assay (P49336 whole entry): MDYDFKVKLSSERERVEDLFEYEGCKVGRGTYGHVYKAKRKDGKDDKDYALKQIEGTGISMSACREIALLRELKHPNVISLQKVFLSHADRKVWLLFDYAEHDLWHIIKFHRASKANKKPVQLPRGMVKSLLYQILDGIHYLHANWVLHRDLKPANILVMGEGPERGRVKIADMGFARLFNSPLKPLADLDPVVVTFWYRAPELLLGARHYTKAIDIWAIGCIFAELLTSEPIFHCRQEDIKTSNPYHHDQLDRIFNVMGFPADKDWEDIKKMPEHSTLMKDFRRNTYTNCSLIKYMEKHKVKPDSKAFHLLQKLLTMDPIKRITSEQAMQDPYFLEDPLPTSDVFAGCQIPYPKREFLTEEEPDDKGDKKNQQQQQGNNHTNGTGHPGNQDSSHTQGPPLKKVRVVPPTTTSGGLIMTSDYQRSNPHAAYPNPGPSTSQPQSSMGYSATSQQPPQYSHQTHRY

[2] = target: T1, CDK8; experiment: CDK8 degradation in HEK-293 cells (Western blot, normalized by GAPDH); format: cell-based; set-up: endogenous in cells; host or cells: HEK-293; settings: HEK-293 cells
Method in brief: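 HEK-293 cells were treated for 24 h with or without compound, at 1 μM or 0.3 μM for single-point testing. RIPA lysates were immunoblotted for CDK8, and densitometry gave levels normalized to GAPDH. DC50 is the concentration that reduces CDK8 to half its level in untreated cells.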
Target sequence in this assay (P49336 whole entry): as above
Target sequence in this assay (P24863 whole entry partner): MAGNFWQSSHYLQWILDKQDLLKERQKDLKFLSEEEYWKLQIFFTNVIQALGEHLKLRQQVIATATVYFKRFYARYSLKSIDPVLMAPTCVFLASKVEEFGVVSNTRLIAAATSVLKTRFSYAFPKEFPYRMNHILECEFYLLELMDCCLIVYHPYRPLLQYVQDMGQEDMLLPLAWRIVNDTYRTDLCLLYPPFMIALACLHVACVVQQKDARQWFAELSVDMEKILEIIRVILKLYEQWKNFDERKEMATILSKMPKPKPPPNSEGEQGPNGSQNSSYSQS

[3] = Serum drug concentrations in CD-1 mice (LCMSMS); format: in vivo; settings: female CD-1 mice, i.p. 15 mg/kg, 15 min and 1 hr
Experimental: For preliminary evaluation of the bioavailability of the PROTACs, IA7882 and IA7886 were administered to female CD-1 mice via intraperitoneal (i.p.) injection at the dose of 15 mg/kg. Drug concentrations were measured by LCMSMS analysis of serum samples collected at 15 min and 1 hr time point.

[4] = target: T2, CDK19 (Homo sapiens, UniProt Q9BWU1); experiment: CDK19 degradation in HEK-293 cells with CRISPR knockout of CCNC; format: cell-based; set-up: a derivative of HEK-293cells with CRISPR-mediated knockout of CCNC; endogenous in cells; host or cells: HEK-293 with CRISPR knockout of CCNC; settings: HEK-293 CCNC-knockout cells, 24 hr treatment
From the text: as §1
Target sequence in this assay (Q9BWU1 whole entry): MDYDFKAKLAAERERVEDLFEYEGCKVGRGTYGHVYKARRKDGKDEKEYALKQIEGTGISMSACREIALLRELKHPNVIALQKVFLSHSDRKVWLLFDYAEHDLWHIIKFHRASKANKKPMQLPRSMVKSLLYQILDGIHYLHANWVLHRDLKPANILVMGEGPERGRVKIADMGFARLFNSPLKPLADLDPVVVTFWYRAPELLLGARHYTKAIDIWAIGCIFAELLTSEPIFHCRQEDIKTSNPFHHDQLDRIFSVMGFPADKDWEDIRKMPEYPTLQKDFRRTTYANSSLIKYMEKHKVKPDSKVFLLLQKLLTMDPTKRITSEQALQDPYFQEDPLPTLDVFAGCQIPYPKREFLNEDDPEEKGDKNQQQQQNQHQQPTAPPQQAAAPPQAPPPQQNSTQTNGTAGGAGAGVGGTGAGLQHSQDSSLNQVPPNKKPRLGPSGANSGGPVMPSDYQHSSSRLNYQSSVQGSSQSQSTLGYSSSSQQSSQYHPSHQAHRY

[5] = target: T1, CDK8; experiment: CDK8 degradation in HEK-293 cells with CRISPR knockout of CCNC; format: cell-based; set-up: a derivative of HEK-293cells with CRISPR-mediated knockout of CCNC; endogenous in cells; host or cells: HEK-293 with CRISPR knockout of CCNC; settings: HEK-293 CCNC-knockout cells, 24 hr treatment
From the text: as §1
Target sequence in this assay (P49336 whole entry): as the sequence (P49336 whole entry) above

[6] = target: T3, CDK8 (Mus musculus, UniProt Q8R3L8); experiment: CDK8 protein level in CT26 tumors in Balb/c mice; format: in vivo; set-up: from tissue; host or cells: subcutaneous CT26 tumours in Balb/c female mice; settings: oral gavage 20 mg/kg, 2, 8 or 24 hrs after dosing
T3 sequence (Q8R3L8 1-464): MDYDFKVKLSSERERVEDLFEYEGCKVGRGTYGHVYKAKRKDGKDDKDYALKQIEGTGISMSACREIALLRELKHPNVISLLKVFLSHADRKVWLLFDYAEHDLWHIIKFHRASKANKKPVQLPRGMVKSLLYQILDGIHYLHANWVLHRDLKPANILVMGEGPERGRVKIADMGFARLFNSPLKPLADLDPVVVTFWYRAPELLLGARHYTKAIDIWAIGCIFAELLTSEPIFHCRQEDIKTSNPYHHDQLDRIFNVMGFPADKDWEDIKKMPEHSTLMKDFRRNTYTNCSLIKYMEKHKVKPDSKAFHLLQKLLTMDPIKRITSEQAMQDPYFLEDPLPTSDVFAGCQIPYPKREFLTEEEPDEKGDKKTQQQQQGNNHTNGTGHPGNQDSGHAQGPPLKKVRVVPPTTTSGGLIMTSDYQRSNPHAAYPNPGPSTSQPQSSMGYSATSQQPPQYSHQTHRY
T3 sequence (Q62447 1-283 partner): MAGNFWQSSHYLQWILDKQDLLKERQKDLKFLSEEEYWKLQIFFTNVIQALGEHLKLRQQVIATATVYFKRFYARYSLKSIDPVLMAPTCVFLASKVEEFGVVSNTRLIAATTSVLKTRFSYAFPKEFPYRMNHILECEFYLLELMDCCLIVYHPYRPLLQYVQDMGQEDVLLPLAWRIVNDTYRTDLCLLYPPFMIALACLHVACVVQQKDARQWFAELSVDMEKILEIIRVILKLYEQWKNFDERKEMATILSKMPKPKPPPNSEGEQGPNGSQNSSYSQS
Experimental: (§2) CT26 cells were injected subcutaneously into syngeneic Balb/c female mice and allowed to grow to 150˜200 mm^3. Tumor-bearing mice then received PROTACs IA7882 or IA7886 by oral gavage at 20 mg/kg in 30% propylene glycol/70% PEG-400 vehicle. Tumors were collected 2, 8 or 24 hrs after dosing and used to measure protein levels of CDK8, pS727 STAT1 and total STAT1 (by western blotting) and mRNA expression of CCL12, a gene that is inhibited by different CDK8/19 inhibitors in CT26 tumors in vivo (by QPCR).

[7] = test system: CCL12; experiment: CCL12 mRNA expression in CT26 tumors in Balb/c mice (QPCR); format: in vivo; settings: oral gavage 20 mg/kg, 2, 8 or 24 hrs after dosing
Experimental: as §2

[8] = test system: pS727 STAT1 and total STAT1; experiment: pS727 STAT1 and total STAT1 in CT26 tumors in Balb/c mice; format: in vivo; settings: oral gavage 20 mg/kg, 2, 8 or 24 hrs after dosing
Experimental: as §2

[9] = target: T2, CDK19; experiment: CDK19 degradation in HEK-293 cells (Western blot); format: cell-based; set-up: PROTACs on CDK8 and CDK19 degradation in HEK-293cells; endogenous in cells; host or cells: HEK-293; settings: concentration degrading CDK19 to half of level in untreated cells
From the text: Furthermore, the degradation of both CDK8 and CDK19 by the PROTACs is also seen to decrease the levels of their binding partner cyclin C (CCNC) (FIG. 2B, D, E), which is known to be protected from proteolytic degradation by its interaction with CDK8 (Barette et al., 2001).
FIGS. 2F and 2G show the effects of different concentrations of potent Senexin C- and BI-1347-based PROTACs on CDK8 and CDK19 degradation in HEK-293cells. Based on these assays, we calculated DC50 values that correspond to PROTAC concentrations inducing degradation of CDK8 and CDK19 to the half of protein level in untreated cells. The corresponding CDK8 DC50 values were 46 nM for IA7843, 6.6 nM for IA7882 and 2.8 nM for IA7886, and CDK19 DC50 values were 1 μM for IA7843, 25 nM for IA7882 and 10 nM for IA7886.
Target sequence in this assay (Q9BWU1 whole entry): as the sequence (Q9BWU1 whole entry) above
Target sequence in this assay (P24863 whole entry partner): as the sequence (P24863 whole entry partner) above

[10] = target: T2, CDK19; experiment: CDK19 degradation in Loucy T-cell leukemia cells lacking Cyclin C; format: cell-based; set-up: endogenous in cells; host or cells: Loucy; settings: Loucy cells (lacking CCNC), 24 hr treatment
From the text: as §1
Target sequence in this assay (Q9BWU1 whole entry): as the sequence (Q9BWU1 whole entry) above

With `O=C1CCC(N2C(=O)c3cccc(NCCOCCOCCOCCOCCC(=O)N4CCN(C(=O)Cn5cc(-c6ccc(-c7cncc8ccccc78)cc6)cn5)CC4)c3C2=O)C(=O)N1` (centres unmarked) [IA7882, 2-(2,6-dioxo-3-piperidyl)-4-[2-[2-[2-[2-[3-[4-[2-[4-[4-(4-isoquinolyl)phenyl]pyrazol-1-yl]acetyl]piperazin-1-yl]-3-oxo-propoxy]ethoxy]ethoxy]ethoxy]ethylamino]isoindoline-1,3-dione] the “CDK8 degradation (in words)” value [1] was “efficiently degraded CDK8 and CDK19”, the “% CDK8 remaining” value ([2]; 24 hours, tested at 1 μM) was 12% and the DC50 ([2]; concentration degrading CDK8 to half of level in untreated cells) was 6.6 nM. The serum drug concentrations [3] was “readily measurable and were higher for IA7882 than for IA7886”, the “CDK19 degradation (in words)” value [4] was “efficiently degraded CDK8 and CDK19” and the “CDK8 degradation (in words)” value [5] was “efficiently degraded CDK8 and CDK19”. The “CDK8 levels in tumor extracts” value [6] was “decreased in most of the tumor extracts collected 2 hrs or 8 hrs after dosing”, the “levels of CCL12 mRNA in tumors” value [7] was “decreased in tumors treated with IA7882 or IA7886 2 hrs or 8 hrs (but not 24 hrs) after dosing” and the “pS727 STAT1 and total STAT1 in tumors” value [8] was “decreased in most of the tumors collected 2 hrs or 8 hrs after dosing”. For the same molecule, the DC50 [9] was 25 nM and the “CDK19 degradation (in words)” value [10] was “efficiently degraded CDK8 and CDK19”.
